# From patent publication US8828993B2, “Psychotropic agents having glutamate NMDA activity” (Ramot At Tel-Aviv University Ltd., priority 2006, dated 2014)
# Entries after “also recorded” stand apart in the source; their conditions may differ. Structures can show the parent of a compound that is named as a salt.
# Tests used:
# human glioma U83 cell = conditions: 24 h
# Experimental: Determination of cell viability was performed in cells (10,000/well) using neutral red method. Absorption of neutral red by lysosomes caused coloring of living cells. Quantitative analysis was performed by colorimetric assay (ELISA reader at 550 nm).
# [1] = tested on: MK-801-induced hyperactivity in mice; experiment: MK-801-induced hyperactivity in open field; type: in vivo
# Experimental: MK-801-Induced Stereotype Behavior in Rats (in Open Field)—
# MK-801 is an analogue of PCP which inhibits NMDA receptors and elicits hyperlocomotion and stereotypic behavior in rodents and is used as an animal model of schizophrenia (Stephen, et al., Topiramate antagonizes MK-801 in an animal model of schizophrenia, Eur. J. Pharmacol. 449, 2002, 121-5). For experimentation, naïve Balb/c mice were used. MK-801 (0.15 mg/kg i.p) was administered 40 minutes after Compound 1 (or any one of the other compounds of the invention) or a vehicle, and 20 minutes prior to placing the mouse in an open field.
# Animals placed in the open field were followed for 60 minutes and their distance moved, velocity, duration of immobility, and number of rearing events were registered using the Noldus system.
# As stated above, MK-801 inhibits NMDA receptors and elicits hyperlocomotion. Therefore, where an antagonism of the hyperactivity-induced by the MK-801 is observed upon administration of a compound of the invention, it is an indication as to the positive modulation of the NMDA activity. In other words, such a compound may be considered as useful in the treatment of schizophrenia.
# The effect of Compound 6 on the distance moved in Balb/c mice exposed to MK-801 ([…]) i.p. and to Compound 6 (up to 12.5 mg/kg, i.p.) administered 1 hr prior to MK-801 was also tested.
# As stated above, MK-801 (an NMDA receptor antagonist) is a widely accepted animal model for schizophrenia. The experiment was conducted with Balb/c male mice (Harlan Il), 6 per group. Compound 1 (50 mg/kg) was administered i.p. (1 hr before experimentation), to mice alone or combined with MK-801 (0.15 mg/kg, i.p.) administered 20 minutes prior to placing the mice individually in an open field for 60 minutes. The hyper-active behavior expressed by hyperlocomotion, velocity, strong mobility, number of rearing was evaluated using the Noldus system, each point represents the mean+/−6 determinations.
# rats = experiment: Morris Water Maze, spatial cognition; type: in vivo
# Experimental: (§1) The Morris Water Maze is a well known test aimed to assess spatial cognitive tasks (Anger, et al., Animal test systems to study behavioral dysfunctions of neurodegenerative disorders, Neurotoxicology, 12, 403-13 (1991)). The maze consists of a circular pool measuring 1.80 m in diameter 60 cm in height. The pool was filled with water (21±1° C.) to a depth of 30 cm. A circular hidden escape platform (10 cm in diameter) was placed just below the water surface. The test room contained several permanent extra maze cues such as the rat housing rack, laboratory table, posters on the walls, etc.
# as §1, with “tasks.” for “tasks (Anger, et al., Animal test systems to study behavioral dysfunctions of neurodegenerative disorders, Neurotoxicology, 12, 403-13 (1991)).”
# In the experiment rats were given Compound 1 orally on day 1 and the first test begun 90 minute later, six trials per day, for 3 consecutive days, to find the hidden platform (acquisition phase). The escape latency, i.e., the time required by the rat to find and climb onto the platform, was recorded for up to 120 sec. Each rat was allowed to remain on the platform for 30 sec, after which it was removed to its home cage.
# A video camera was placed above the center of the pool for tracking the rat, and a video tracking system (Noldus) with online digital output directly fed data into a computer. Data were analyzed using EthoVision automated tracking system software (Noldus).
# mice = experiment: Elevated plus maze; type: in vivo
# Excerpt: The elevated plus maze is a widely used method to test anxiety in rodents (Pellow, et al., Pharmacol. Biochem. Behav., 24, 525-529 (1986)). The apparatus was made of wood and painted black, with two opposing open arms and two opposite enclosed arms of the same size. The arms were attached to a central square shaped in a plus sign. The whole apparatus was placed 50 cm above the floor. Anxious animals refrain from entering the open arm and prefer the closed arm.
# In a typical experiment, Balb/c male mice were administered orally with 10 and 20 mg/kg of Compound 1 or Compound 6 and with a vehicle or with diazepam (1 mg/kg) administered per os (p.o.) 90 minutes before they were placed in the center of the maze. The frequency to the open aims, the time spent in the different arms, the velocity and number of rearings of the animals in each zone were recorded (Noldus).
# Male Balb/c mice were used. Animals were transferred to the behavior room 24 hr before the experiment. Compound 1 or diazepam were administered orally 90 minutes before testing. Each treatment group included 5 animals.
# Male Balb/c mice were used. Animals were transferred to the behavior room 24 hr before the experiment. Compound 6 (3, 9, or 27 mg/kg) or vehicle were administered orally 90 minutes before testing. Each treatment group included 5 animals.
# [2] = male Balb/c mice, 20 mg/kg oral
# [3] = male Balb/c mice, oral, diazepam 1 mg/kg
SMILES,concentration toxic to human glioma cells (not toxic up to) (human glioma U83 cell) [µM],"vertical motility (number of rearings), compound alone ([1]; Balb/c male mice, 50 mg/kg i.p.)","inhibition of rearings presented by MK-801 ([1]; Balb/c male mice, 50 mg/kg i.p. combined with MK-801 0.15 mg/kg i.p.)","basal and MK-801-induced stimulation of horizontal motility (distance moved, velocity, strong mobility) ([1]; Balb/c male mice, 50 mg/kg i.p., MK-801 0.15 mg/kg i.p., open field 60 minutes)","hyperlocomotion effect of MK-801 ([1]; mice, 30 and 50 mg/kg i.p.)","increased frequency to the center of animals treated with MK-801 ([1]; mice, 30 and 50 mg/kg i.p.)","time spent in the center (zone 3), MK-801 treated ([1]; mice, 30 and 50 mg/kg i.p.)","latency to platform (task execution) (rats; 20 mg/kg po, second day)","latency to platform (learning of the spatial task) (rats; rats, 20 mg/kg po on day 1, first day)","latency to platform (rats; rats, 10 and 20 mg/kg po, third day, between all groups)",anxiolytic activity (overall conclusion) (mice; 20 mg/kg),time spent in the center (mice; [2]),time spent in the closed and the open arm (mice; [2]),"frequency to the open arm and the center (mice; male Balb/c mice, 20 mg/kg oral, 90 minutes before testing)",number of rearings in the open arm (mice; [3]),velocity (mice; [3]),"motility (distance moved) of MK-801 treated mice ([1]; Balb/c mice, up to 12.5 mg/kg i.p. 1 hr prior to MK-801 (15 mg/kg) i.p.)","time spent in the closed arm (mice; male Balb/c mice, 3, 9 and 27 mg/kg orally)","time spent in the open arms (mice; male Balb/c mice, 3, 9 and 27 mg/kg orally, 90 minutes before testing, trihydrochloride salt)","time spent in the center (mice; male Balb/c mice, 3, 9 and 27 mg/kg orally, trihydrochloride salt)"
"COC(=O)C(N)CN1CCN(C2=Nc3ccccc3Nc3sc(C)cc32)CC1 (centres unmarked) [Compound 1, 2-amino-3-[4-(2-methyl-10H-thieno[2,3-b][1,5]benzodiazepin-4-yl)-piperazin-1-yl]-propionic acid, methyl ester hydrochloride salt]",> 100,markedly suppressed,increased,clear cut decrease,inhibited in a dose related manner,did not modify,increased,improvement,faster learning,no difference,anxiolytic activity which resembles diazepam,increased,did not significantly affect,frequented significantly more,increased number of rearings,not,,,,
"CNC(CN1CCN(C2=Nc3ccccc3Nc3sc(C)cc32)CC1)C(=O)OC (centres unmarked) [Compound 6, 2-N-methylamino-3-[4-(2-methyl-10H-thieno[2,3-b][1.5]benzodiazepin-4-yl)-piperazin-1-yl]propionic acid, methyl ester trihydrochloride salt]",,,,,,,,,,,,,,,,,did not cause a consistent dose dependent effect,did not significantly affect,more time; also recorded: dose-dependently increase,less and decrease
